Measurements: the CheMixHub viscosity set
Where “and” joins values, the source holds several entries; their conditions need not be identical. Equal values may be shown once.

Experiment: xn = mol fraction of the nth substance listed

O=C1O[C@H]([C@@H](O)CO)C(O)=C1O + O
Details	viscosity
308.15 K, 101 kPa, x1 = 0.001665	0.7425 mPa·s
308.15 K, 101 kPa, x1 = 0.001856	0.748 mPa·s and 0.7477 mPa·s
308.15 K, 101 kPa, x1 = 0.002776	0.7609 mPa·s
308.15 K, 101 kPa, x1 = 0.005396	0.8018 mPa·s
308.15 K, 101 kPa, x1 = 0.006205	0.8139 mPa·s
308.15 K, 101 kPa, x1 = 0.009999	0.8791 mPa·s
308.15 K, 101.3 kPa, x1 = 0.0001803	0.733 mPa·s
308.15 K, 101.3 kPa, x1 = 0.00036	0.738 mPa·s
308.15 K, 101.3 kPa, x1 = 0.0005398	0.743 mPa·s
313.15 K, 101 kPa, x1 = 0.001798	0.6755 mPa·s and 0.6783 mPa·s
313.15 K, 101 kPa, x1 = 0.0018	0.6734 mPa·s
313.15 K, 101 kPa, x1 = 0.00359	0.6979 mPa·s
313.15 K, 101 kPa, x1 = 0.005375	0.7227 mPa·s and 0.7222 mPa·s
313.15 K, 101 kPa, x1 = 0.007154	0.7485 mPa·s and 0.7473 mPa·s
313.15 K, 101 kPa, x1 = 0.007156	0.7432 mPa·s
313.15 K, 101.3 kPa, x1 = 0.0001803	0.668 mPa·s
313.15 K, 101.3 kPa, x1 = 0.00036	0.671 mPa·s
313.15 K, 101.3 kPa, x1 = 0.0005398	0.676 mPa·s
318.15 K, 101 kPa, x1 = 0.000364	0.6 mPa·s and 0.5998 mPa·s
318.15 K, 101 kPa, x1 = 0.000657	0.604 mPa·s and 0.6039 mPa·s
318.15 K, 101 kPa, x1 = 0.0007676	0.6078 mPa·s
318.15 K, 101 kPa, x1 = 0.000952	0.608 mPa·s and 0.6081 mPa·s
318.15 K, 101 kPa, x1 = 0.00125	0.612 mPa·s and 0.6122 mPa·s
318.15 K, 101 kPa, x1 = 0.00155	0.616 mPa·s
318.15 K, 101 kPa, x1 = 0.001665	0.6147 mPa·s
318.15 K, 101 kPa, x1 = 0.001856	0.621 mPa·s
318.15 K, 101 kPa, x1 = 0.002776	0.6296 mPa·s
318.15 K, 101 kPa, x1 = 0.006205	0.6736 mPa·s
318.15 K, 101 kPa, x1 = 0.009999	0.725 mPa·s
323.15 K, 101 kPa, x1 = 0.001798	0.5655 mPa·s and 0.5637 mPa·s
323.15 K, 101 kPa, x1 = 0.0018	0.5616 mPa·s
323.15 K, 101 kPa, x1 = 0.00359	0.5832 mPa·s and 0.5805 mPa·s
323.15 K, 101 kPa, x1 = 0.005375	0.6022 mPa·s and 0.6013 mPa·s
323.15 K, 101 kPa, x1 = 0.007154	0.6221 mPa·s and 0.6216 mPa·s
323.15 K, 101 kPa, x1 = 0.007156	0.6179 mPa·s
